Assay results taken from ChEMBL document CHEMBL5390298, “Nanomolar Benzothiazole-Based Inhibitors of 17β-HSD10 with Cellular Bioactivity” (ACS Med Chem Lett, 2023).

Experiments:
HEK293 = experiment: Cytotoxicity against HEK293 cells assessed as cell damage at 50 uM incubated for 48 hrs by fluorometric method; format: toxicity, cell-based; conditions: human, hek293, 48 h
[1] = biological target: T1, 3-hydroxyacyl-CoA dehydrogenase type-2 (Homo sapiens, UniProt Q99714); experiment: Inhibition of recombinant 17beta-HSD10 (unknown origin) using ALLOP as substrate and NAD+ as cofactor preincubated for 5 mins followed by substrate addition and measured after 20 mins by fluorometric assay
T1 sequence (Q99714 whole entry): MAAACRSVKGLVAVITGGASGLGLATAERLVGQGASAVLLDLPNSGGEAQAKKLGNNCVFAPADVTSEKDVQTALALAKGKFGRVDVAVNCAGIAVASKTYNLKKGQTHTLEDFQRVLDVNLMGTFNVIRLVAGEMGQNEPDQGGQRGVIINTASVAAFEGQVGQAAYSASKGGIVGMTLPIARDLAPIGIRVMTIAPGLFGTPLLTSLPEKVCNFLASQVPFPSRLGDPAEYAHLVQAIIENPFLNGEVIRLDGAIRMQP

[2] = biological target: T1, 3-hydroxyacyl-CoA dehydrogenase type-2; experiment: Mixed type inhibition of recombinant 17beta-HSD10 (unknown origin) using E2 as substrate and NAD+ as cofactor preincubated for 5 mins followed by substrate addition and measured after 20 mins by fluorometric assay
[3] = biological target: T1, 3-hydroxyacyl-CoA dehydrogenase type-2; experiment: Inhibition of recombinant 17beta-HSD10 (unknown origin) using E2 as substrate and NAD+ as cofactor preincubated for 5 mins followed by substrate addition and measured after 20 mins by fluorometric assay

| SMILES | Activity (HEK293) | also measured |
| --- | --- | --- |
| CC(=O)Nc1ccc2nc(NCc3ccc(O)c(C(F)(F)F)c3)sc2c1 | Non-Toxic |  |
| CS(=O)(=O)Nc1ccc2nc(NC(=O)Nc3ccc(O)c(Cl)c3)sc2c1 | Non-Toxic |  |
| NS(=O)(=O)c1ccc2nc(NC(=O)Nc3ccc(O)c(Cl)c3)sc2c1 | Non-Toxic |  |
| O=C(Nc1ccc(O)c(Cl)c1)Nc1nc2cc(C(=O)O)ccc2s1 | Non-Toxic |  |
| CC(=O)Nc1ccc2nc(NCc3ccc(O)c(Cl)c3)sc2c1 | Non-Toxic |  |
| CC(=O)Nc1ccc2nc(N(CCc3ccc(O)c(Cl)c3)C(C)=O)sc2c1 | Non-Toxic |  |
| NC(=O)Nc1ccc2nc(NC(=O)Nc3ccc(O)c(Cl)c3)sc2c1 | Non-Toxic | IC50 [1]: 0.33 µM; IC50 [2]: 0.27 µM |
| O=C(Nc1ccc(O)c(Cl)c1)Nc1nc2ccc(C(=O)O)cc2s1 |  | IC50 [3]: 1.81 µM |
| CC(=O)Nc1ccc2nc(NC(=O)Nc3ccc(O)c(C(F)(F)F)c3)sc2c1 | Non-Toxic |  |
| O=C(O)c1ccc2nc(NCc3ccc(O)c(Cl)c3)sc2c1 | Non-Toxic |  |
| O=C(O)c1ccc2nc(NC(=O)c3ccc(O)c(Cl)c3)sc2c1 | Non-Toxic |  |
| CC(=O)Nc1ccc2nc(NCCc3ccc(O)c(Cl)c3)sc2c1 | Non-Toxic |  |
| CC(=O)Nc1ccc2nc(NC(=O)Nc3ccc(O)c(Cl)c3)sc2c1 |  | IC50 [3]: 1.15 µM |
| O=C(O)c1ccc2nc(NCCc3ccc(O)c(Cl)c3)sc2c1 | Non-Toxic |  |
| O=C(Nc1ccc(O)c(C(F)(F)F)c1)Nc1nc2ccc(C(=O)O)cc2s1 | Non-Toxic | IC50 [1]: 0.25 µM; IC50 [2]: 0.34 µM |
| O=C(Nc1ccc(O)c(Cl)c1)Nc1nc2ccc(-c3nnn[nH]3)cc2s1 | Non-Toxic | IC50 [1]: 0.095 µM; IC50 [2]: 0.41 µM |
